The values that follow come from patent publication US8093226B2, “Cytostatic 7-deazapurine nucleosides” (Institute of Organic Chemistry and Biochemistry of the …, priority 2008, dated 2012).

Each structure is given as a SMILES string. A value given as a limit tells only on which side of the number the result lay.

What all share (type): cell-based
One assay has as its system A549. The assay can be described thus: Test A: Cytostatic Cell Culture Assay (GI50), A549. Conditions: Homo sapiens, 120 h; A549 cells, 5 days, SRB; read-out: G150 Lung A549. The source says:
(§1) Test A: Cytostatic Cell Culture Assay (GI50)
(§2) This assay is based on quantification of cell counts by a calorimetric detection of the cell associated proteins. The assay relies on the ability of sulforhodamine B (SRB) to bind to protein components of cells that have been fixed to tissue-culture plates by trichloroacetic acid (TCA). SRB is a bright-pink aminoxanthene dye with two sulfonic groups that bind to basic amino-acid residues under mild acidic conditions, and dissociate under basic conditions. As the binding of SRB is stoichiometric, the amount of dye extracted from stained cells is directly proportional to the cell mass.
(§3) Cell lines: All cell lines are obtained from ATCC (Manassas, Va.). Cultivation media containing Glutanax, and trypsin are purchased from Invitrogen (Carlsbad, Calif.). Doxorubicin, Clofarabine, TCA and SRB are from Sigma-Aldrich (St. Louis, Mo.). Gemcitabine is obtained from Moravek Biochemicals (Brea, Calif.)
(§4) • 1. Trypsinize the sub-confluent cells, count them, and adjust the cell concentrations according to the cell counts listed in Table 1. • 2. Distribute the cells into the 96-well plates in 150 μL of media. Incubate the plates overnight in humidified CO2 incubator at 37° C. • 3. Fix one plate of each cell line with TCA. Discard the cultivation media from the plates by flicking them gently and add 100 μL cold 10% (vol/vol) TCA to each well. Incubate the plates at 4 degree refrigerator for 1 hour. Discard TCA from the plates by flicking them gently. Rinse plates four times in a washing basin containing tap water. Store the plates at room temperature. These plates represent cell counts on day zero. • 4. Prepare a set of medium solutions containing various concentrations of tested compounds by making 5-fold serial dilutions in 96-well plate. Add 50 μL of the diluted compounds per well. Include controls with untreated cells and cells treated with doxorubicin, clofarabine and gemcitabine. • 5. Incubate the plates for 5 days at 37° C. • 6. Fix the plates with TCA. Discard the cultivation media from the plates by flicking them gently and add 100 μL cold 10% (vol/vol) TCA to each well. Incubate the plates at 4 degree refrigerator for 1 hour. Discard TCA from the plates by flicking them gently. Rinse plates four times in a washing basin containing tap water. • 7. Remove excess water by tapping the plates face down, gently on a paper towel. Allow the plates to air-dry at room temperature. • 8. Add 100 μL of 0.057% SRB solution in 1% (vol/vol) acetic acid to each well of the plates fixed with TCA on day zero and five. Leave at room temperature for 30 minutes. • 9. Flick the plates gently to discard SRB. Rinse the plates four times with 1% (vol/vol) Acetic Acid. • 10. Store the plates at 370 incubator to facilitate faster drying. • 11. Once the plates are completely dry, add 200 μL of 10 mM Tris base solution (pH 10.5) to each well. Leave at room temperature for 30 minutes for SRB to solubilize. • 12. Measure the OD at 500 nm in a microplate reader. • 13. Calculate the percentage of cell-growth inhibition using the next formula: % of control cell growth=100×(ODsample−mean ODday0)/(ODneg control−mean ODday0)
(§5) For GI50 determination, plot a dose-response curves between the compound concentration and percent of growth inhibition. GI50 values can be derived by fitting dose-response curves using sigmoidal dose response equation.

A further assay relates to Du145. The assay can be described thus: Test A: Cytostatic Cell Culture Assay (GI50), Du145. Conditions: Homo sapiens, DU-145, 120 h; Du145 cells, 5 days, SRB; read-out: G150 Prostate Du145.
Source text: as §1, §2, §3, §4, §5

The subject of another assay is HCT116. The assay can be described thus: Test A: Cytostatic Cell Culture Assay (GI50), HCT116. Conditions: Homo sapiens, HCT-116, 120 h; HCT116 cells, 5 days, SRB; read-out: G150 Colon HCT116.
Source text: as §1, §2, §3, §4, §5

Another assay relates to Hs578. Briefly: Test A: Cytostatic Cell Culture Assay (GI50), Hs578. Conditions: 120 h; Hs578 cells, 5 days, SRB; read-out: G150 Breast Hs578.
Source text: as §1, §2, §3, §4, §5

In a further assay the test system is NCIH23. Briefly: Test A: Cytostatic Cell Culture Assay (GI50), NCIH23. The settings on record: Homo sapiens, NCI-H23, 120 h; NCIH23 cells, 5 days, SRB; read-out: G150 Lung NCIH23.
Source text: as §1, §2, §3, §4, §5

The test system of a further assay is PC3. Briefly: Test A: Cytostatic Cell Culture Assay (GI50), PC3. The settings on record: Homo sapiens, PC-3, 120 h; PC3 cells, 5 days, SRB; read-out: G150 Prostate PC3.
Source text: as §1, §2, §3, §4, §5

Another assay has as its system HCT15. Briefly: Test A: Cytostatic Cell Culture Assay (GI50), HCT15. The settings on record: Homo sapiens, HCT-15, 120 h; HCT15 cells, 5 days, SRB; read-out: G150 Colon HCT15.
Source text: as §1, §2, §3, §4, §5

In the case of `CCc1ncnc2c1ccn2[C@@H]1O[C@H](CO)[C@@H](O)[C@H]1O` [Example 1, 4-Ethyl-7-(β-D-ribofuranosyl)-7H-pyrrolo[2,3-d]pyrimidine], the IC50 in the assay with A549 turned out to be 4.4 µM; in the assay with Du145, 1.24 µM; with HCT116, 2.56 µM; in the assay with Hs578, 4.68 µM.
Turning to `OC[C@H]1O[C@@H](n2ccc3c(Cc4ccccc4)ncnc32)[C@H](O)[C@@H]1O` [Example 2, 4-Benzyl-7-(β-D-ribofuranosyl)-7H-pyrrolo[2,3-d]pyrimidine], the IC50 is more than 20 µM with A549, 15.7 µM in the assay on Du145, more than 20 µM in the assay on HCT116 and more than 20 µM in the assay with Hs578.
`COc1ccc(-c2ncnc3c2ccn3[C@@H]2O[C@H](CO)[C@@H](O)[C@H]2O)cc1` [Example 3, 4-(4-Methoxyphenyl)-7-(β-D-ribofuranosyl)-7H-pyrrolo[2,3-d]pyrimidine]: the IC50 is more than 20 µM with A549, 1.31 µM with Du145, more than 20 µM in the assay with HCT116 and more than 20 µM in the assay with Hs578.
For the molecule `OC[C@H]1O[C@@H](n2ccc3c(-c4ccc(F)cc4)ncnc32)[C@H](O)[C@@H]1O` [Example 4, 4-(4-Fluorophenyl)-7-(β-D-ribofuranosyl)-7H-pyrrolo[2,3-d]pyrimidine], the IC50 in the assay on A549 was more than 20 µM; in the assay with Du145, 0.729 µM; with HCT116, more than 20 µM; in the assay on Hs578 it was 2.52 µM.
Turning to `OC[C@H]1O[C@@H](n2ccc3c(-c4ccc[nH]4)ncnc32)[C@H](O)[C@@H]1O` [Example 7, 4-(1H-Pyrrol-2-yl)-7-(β-D-ribofuranosyl)-7H-pyrrolo[2,3-d]pyrimidine], the IC50 with A549 is more than 20 µM; with NCIH23, 2.5 µM; in the assay with Du145, 0.63 µM; in the assay with PC3, 1.28 µM; in the assay with HCT116, more than 20 µM; with HCT15, 2.44 µM. Further, in the assay on Hs578, the IC50 amounted to 1.28 µM.
Consider `OC[C@H]1O[C@@H](n2ccc3c(-c4nccs4)ncnc32)[C@H](O)[C@@H]1O` [Example 8, 7-(β-D-Ribofuranosyl)-4-(thiazol-2-yl)-7H-pyrrolo[2,3-d]pyrimidine], for which the IC50 turned out to be 0.409 µM in the assay on A549; 4.39 µM in the assay on NCIH23; 0.019 µM in the assay with Du145; 0.104 µM with PC3; 0.484 µM in the assay with HCT116; 0.208 µM in the assay on HCT15. Besides, the IC50 with Hs578 was 0.294 µM.
Take `OC[C@H]1O[C@@H](n2ccc3c(-c4c[nH]cn4)ncnc32)[C@H](O)[C@@H]1O` [Example 9, 4-(1H-Imidazol-4-yl)-7-(β-D-ribofuranosyl)-7H-pyrrolo[2,3-d]pyrimidine]: the IC50 in the assay on A549 is 2.59 µM; in the assay with NCIH23, 2.49 µM; in the assay on Du145, 0.094 µM; in the assay with PC3 it was 0.194 µM; in the assay on HCT116, 3.69 µM; in the assay with HCT15 it was 0.224 µM. The IC50 in the assay with Hs578 is 1.94 µM.
`OC[C@H]1O[C@@H](n2ccc3c(-c4cccnc4)ncnc32)[C@H](O)[C@@H]1O` [Example 10]: the IC50 in the assay with A549, in the assay on NCIH23, with Du145, in the assay with PC3, in the assay on HCT116 and with HCT15 was more than 20 µM throughout. For the same molecule, the IC50 with Hs578 is more than 20 µM.
For the molecule `OCc1ncnc2c1ccn2[C@@H]1O[C@H](CO)[C@@H](O)[C@H]1O` [Example 11, 4-Hydroxymethyl-7-(β-D-ribofuranosyl)-7H-pyrrolo[2,3-d]pyrimidine], the IC50 was 0.252 µM with A549; 0.028 µM in the assay with NCIH23; 0.03 µM with Du145; 0.052 µM with PC3; 0.447 µM in the assay on HCT116; 0.03 µM with HCT15. For the same molecule, the IC50 in the assay on Hs578 is 0.053 µM.
Regarding `OC[C@H]1O[C@@H](n2ccc3c(-c4ccoc4)ncnc32)[C@H](O)[C@@H]1O` [Example 12, 4-(Furan-3-yl)-7-(β-D-ribofuranosyl)-7H-pyrrolo[2,3-d]pyrimidine], the IC50 with A549 is 0.073 µM; with NCIH23 it was 0.697 µM; with Du145 it was 0.036 µM; in the assay with PC3, 0.15 µM; with HCT116 it was 0.092 µM; with HCT15 it was 0.086 µM. Also, the IC50 in the assay on Hs578 is 0.264 µM.
As to `OC[C@H]1O[C@@H](n2ccc3c(-c4ccsc4)ncnc32)[C@H](O)[C@@H]1O` [Example 13, 7-(β-D-Ribofuranosyl)-4-(thiophen-3-yl)-7H-pyrrolo[2,3-d]pyrimidine], the IC50 came out at 0.627 µM in the assay on A549; 4.24 µM in the assay on NCIH23; 0.032 µM in the assay on Du145; 0.092 µM in the assay with PC3; 0.216 µM in the assay on HCT116; 0.098 µM in the assay on HCT15. The IC50 in the assay with Hs578 worked out at 0.711 µM.
Consider `OC[C@H]1O[C@@H](n2ccc3c(-c4cc[nH]c4)ncnc32)[C@H](O)[C@@H]1O` [Example 14, 4-(1H-Pyrrol-3-yl)-7-(β-t-ribofuranosyl)-7H-pyrrolo[2,3-d]pyrimidine], for which the IC50 in the assay on A549 turned out to be 0.365 µM; in the assay with NCIH23 it was 2.32 µM; in the assay with Du145 it was 0.03 µM; in the assay on PC3 it was 0.384 µM; in the assay with HCT116, 0.5 µM; in the assay with HCT15, 0.163 µM. Moreover, the IC50 in the assay with Hs578 worked out at 0.442 µM.
Regarding `OC[C@H]1O[C@@H](n2ccc3c(-c4ccc[se]4)ncnc32)[C@H](O)[C@@H]1O` [Example 15, 7-(O-D-Ribofuranosyl)-4-(selenophen-2-yl)-7H-pyrrolo[2,3-d]pyrimidine], the IC50 in the assay on A549 turned out to be 0.23 µM; in the assay with NCIH23, 2.52 µM; in the assay with Du145, 0.028 µM; in the assay with PC3, 0.012 µM; in the assay on HCT116, 0.342 µM; in the assay on HCT15 it was 0.005 µM. Also, in the assay on Hs578, the IC50 was 0.29 µM.
Regarding `OC[C@H]1O[C@@H](n2ccc3c(-c4ccn[nH]4)ncnc32)[C@H](O)[C@@H]1O` [Example 16], the IC50 in the assay with A549 stood at 3.25 µM; in the assay on NCIH23, 3.23 µM; with Du145, 0.409 µM; with PC3, 0.56 µM; in the assay on HCT116 it was 7.31 µM; in the assay on HCT15 it was 1.06 µM. Besides, the IC50 in the assay with Hs578 is 3.94 µM.
For the molecule `OC[C@H]1O[C@@H](n2ccc3c(-c4cn[nH]c4)ncnc32)[C@H](O)[C@@H]1O` [Example 17, 4-(1H-Pyrazol-4-yl)-7-(β-D-ribofuranosyl)-7H-pyrrolo[2,3-d]pyrimidine], the IC50 in the assay with A549 stood at 6.23 µM; with NCIH23, 5.23 µM; with Du145 it was 0.075 µM; in the assay with PC3, 0.427 µM; in the assay on HCT116 it was 5.69 µM; with HCT15, 0.674 µM. In addition, the IC50 in the assay with Hs578 was 3.06 µM.
As to `OC[C@H]1O[C@@H](n2ccc3c(-c4ccccn4)ncnc32)[C@H](O)[C@@H]1O` [Example 18, 4-(Pyridin-2-yl)-7-(β-D-ribofuranosyl)-7H-pyrrolo[2,3-d]pyrimidine], the IC50 is 4.86 µM in the assay on A549, 0.387 µM with Du145, more than 20 µM with HCT116 and more than 20 µM in the assay on Hs578.
On to `OC[C@H]1O[C@@H](n2cc(F)c3c(-c4ccccc4)ncnc32)[C@H](O)[C@@H]1O` [Example 19, 5-Fluoro-4-phenyl-7-(β-D-ribofuranosyl)-7H-pyrrolo[2,3-d]pyrimidine], for which the IC50 in the assay on A549 is 12.9 µM; in the assay on Du145 it was 0.581 µM; with HCT116, more than 20 µM; in the assay on Hs578, 19.2 µM.
